Assays:
[1] = tested on: OVA-induced inflammatory cell recruitment; assay: BAL fluid total and differential inflammatory cell counts, OVA mouse asthma model; format: in vivo, BALB/c mice; settings: for total cell count in BAL fluid: 0.1, 0.5 and 1 mg/kg i.p. 2 h before and 10 h after each challenge; for total cell count in BAL fluid / eosinophil count in BAL fluid: BAL fluid 24 hours after last OVA aerosol, vs DMSO control; for eosinophil count in BAL fluid: 0.1, 0.5 and 1 mg/kg i.p.; for OVA-induced inflammatory cell counts in BAL fluid: sensitized mice 24 hours after last OVA aerosol challenge, 0.1, 0.5, 1 mg/kg
Procedure: Female BALB/c mice (Interfauna, East Yorkshire, UK), were housed in appropriate cages (maximum 4 mice/cage) at the Animal Holding Unit (AHU), NUS. The temperature and humidity of the housing environment were maintained at approximately 22° C. and 55% respectively. Commercial mouse feed and water were provided ad libitum. The beddings were changed three times a week to ensure cleanliness of the living conditions. The handling of mice and the experiments carried out strictly followed the guidelines approved by the Institutional Animal Care and Use Committee (IACUC) of NUS, Singapore.
All mice were acclimatized for at least one week before sensitization. A sensitization mixture was prepared by dissolving 20 μg of OVA and 4 mg of Al(OH)3 in 0.1 ml of Saline. The murine asthma model was developed by sensitizing the mice with 0.1 ml of sensitization mixture on Day 0 and Day 14 using intraperitoneal (i.p.) injections.
The sensitized mice were subjected to airway challenge to produce both the control model as well as the asthma model. A challenge mix was prepared by dissolving 0.15 g OVA into 15 ml of saline solution. The mice were then challenged with aerosolized 1% OVA for 30 minutes on Day 22, 23, 24 to stimulate asthmatic response. A negative control for the asthma model was developed by performing saline challenge on several mice. In this case, 15 ml of saline was used as the challenge mix.
Andrographolide or DDAG alone (0.1, 0.5, and 1 mg/kg; Sigma, St. Louis, Mo.) or vehicle (1% dimethyl sulfoxide [DMSO]) in 0.1 ml saline was given by intraperitoneal injections 2 hour before and 10 hours after each OVA aerosol challenge. Andrographolide or 14-deoxy-11,12-didehydroandrographolide (DDA) were prepared from stock. DMSO was used as a solvent to dissolve Andrographolide or DDA. A stock solution of 10 mg/ml was prepared and stored at −20° C. When used, the stock solution was thawed and diluted with Saline solution to form three different drug concentrations: 0.01 mg/ml, 0.05 mg/ml and 0.1 mg/ml.
Bronchoalveolar lavage (BAL) was conducted on Day 25, 24 hours after the final OVA/saline challenge. Mice were anaesthetized by 0.3 ml i.p. injections of an anesthetic cocktail (ketamine: medetomidine: H2O=3:4:33, Parnell, Alexandria NSW, Australia & Pfizer, Auckland, New Zealand) with 27 G½ sterile needle (PrecisionGlide®). Mice were sacrificed by cervical dislocation 5 minutes after anesthetization. 25 G½ sterile needles (PrecisionGlide®) were used for blood extraction. […] Tracheotomy was then performed and a small transverse incision was made on the exposed trachea. Blunt needles (20 G), which were connected to 1 ml sterile syringes, were inserted into the trachea through this incision and 0.5 ml of ice-cold PBS (4° C.) was instilled thrice into the lungs (0.5 ml×3). About 1.2-1.4 ml of BAL fluid was retrieved from each mouse and was kept in −80° C. for subsequent experiments.
BAL fluid collected from the lungs of the mouse was centrifuged at 3000 rpm for 5 min at 4° C. The supernatant was collected and stored at −80° C. The pellet was resuspended in 200 μl of 0.875% NH4Cl (8.75 mg NH4Cl in 1 ml MilliQ water) and incubated for 5 minutes at room temperature to remove unwanted erythrocytes. The cell suspension was then centrifuged at 3000 rpm for 5 min at 4° C. The supernatant was discarded and the pellet containing inflammatory cells was resuspended in 200 μl of RPMI with 1% BSA (10 mg BSA in 1 ml RPMI). The total number of viable cells was enumerated using a haemocytometer (10 μl of 0.4% trypan blue: 10 μl of cell suspension), under a microscope at 200×magnification.
Following the total cell count, dilutions were performed on the BAL fluid collected with the RPMI/BSA solution (1×10^5 cells per 150 μl of RPMI/BSA). Cytocentrifugation was then carried out on all samples using a Cytospin centrifuge (Thermo Shandon, Pittsburgh, USA) at 600 g for 10 minutes to fix the cells on glass slides. […]

[2] = tested on: total IgE and OVA-specific IgE, IgG1, and IgG2a in serum; assay: Serum Ig levels (ELISA), OVA mouse asthma model; format: in vivo, BALB/c mice; settings: OVA-challenged mice, serum 24 hours after last OVA aerosol; for serum OVA-specific IgE level: DDAG even at lowest dose 0.1 mg/kg
Procedure: Blood collected from the hearts were allowed to clot for at least 4 h. Centrifugation at 3000 rpm for 5 min at 4° C. was then performed on all blood samples. The supernatant, which is the serum, was extracted carefully and stored at −80° C. The samples were kept for ELISA.
Mice were anesthetized 24 hours after the last aerosol challenge and bronchoalveolar lavage (BAL) was performed as described above. BAL fluid total and differential cell counts, and cytokine and chemokine levels were determined as described above. Blood was collected by cardiac puncture, and serum levels of total IgE and OVA-specific IgE, IgG1, and IgG2a levels were determined.
Levels of total IgE and OVA-specific IgE, IgG 1 , and IgG2a in serum were measured. 96-well ELISA plate coated with either 50 μl of capture antibody (for total IgE, 1:250 dilution with 1 M Na2CO3) or 50 μl of 20 μg/ml OVA (for OVA-specific IgE, IgG1, and IgG2a) overnight at 4° C. Next day, the plate was washed with washing buffer (PBS with 0.05% Tween-20 for total IgE; PBS with 0.1% Tween-20 for OVA-specific IgE) and blocked with 300 μl 10% FBS in PBS for 2 hr at room temperature. After blocking, standards (only for total IgE) and serum samples were loaded into respective wells and incubated for 2 h. Followed by washing, respective detective antibodies were added and incubated for 1 h, followed by 45 min incubation of HRP-conjugate antibody for 45 min in the dark. Substrates were then added for 30 min in the dark with mild shaking. Lastly, 50 μl of stopping solution (1 M H2SO4) was added to stop the reaction. The optical density of each well in the plate was read at 450 nm with λ correction at 570 nm. The detection limit for total IgE was 2 ng/ml.

[3] = DDAG significant at higher doses
[4] = OVA-challenged mice, high dose 1 mg/kg i.p.

Structure (SMILES) | total cell count in BAL fluid ([1]; OVA-challenged mice) | eosinophil count in BAL fluid ([1]; OVA-challenged mice) | OVA-induced lymphocyte counts in BAL fluid ([1]; OVA-challenged mice, dose not stated) | OVA-induced inflammatory cell counts in BAL fluid [1] | serum OVA-specific IgG2a level [2] | serum OVA-specific IgE level [2] | serum OVA-specific IgG1 level [2, 3] | serum total IgE level [2, 3] | lymphocyte count in BAL fluid [1, 4] | macrophage count in BAL fluid [1, 4] | anti-inflammatory effects in mouse asthma model ([1]; low dose given alone)
C=C1CC[C@@H]2[C@](C)(CO)[C@H](O)CC[C@@]2(C)[C@@H]1C/C=C1/C(=O)OC[C@H]1O [Andrographolide] | inhibited | inhibited | inhibited | dose-dependently reduced | inhibition | significantly lowered | inhibition | significantly lowered | – | – | –
C=C1CCC2C(C)(CO)C(O)CCC2(C)C1C=CC1=CCOC1=O (centres unmarked) [DDAG, 14-Deoxy-11,12-didehydroandrographolide] | drastically decreased | drastically decreased | – | dose-dependently reduced | no effects | strongly suppressed | – | to a lesser extent | reduced | reduced | do not show any anti-inflammatory effects

— patent publication US20120015923A1, “USE OF ANDROGRAPHOLIDE COMPOUNDS FOR TREATING INFLAMMATION AND AIRWAY DISORDERS” (NATIONAL UNIVERSITY OF SINGAPORE, priority 2009, published 2012)
